ChEMBL document CHEMBL1821642, “Discovery of 7-hydroxy-6-methoxy-2-methyl-3-(3,4,5-trimethoxybenzoyl)benzo[b]furan (BNC105), a tubulin polymerization inhibitor with potent antiproliferative and tumor vascular disrupting properties” (J Med Chem, 2011)
The source made the active and inactive calls. The calls are words filed in the database; no cut-off is given here.

Key:
HUVEC [1] = assay: Antiproliferative activity against HUVEC grown in presence of growth factors after 48 hrs by spectrophotometry; format: functional, cell-based; details: Homo sapiens
AU565 = assay: Antiproliferative activity against human AU565 after 48 hrs by spectrophotometry; format: functional, cell-based; details: AU565, 48 h
DU-145 = assay: Antiproliferative activity against human DU145 after 48 hrs by spectrophotometry; format: functional, cell-based; details: DU-145, 48 h
Plasma = assay: Plasma protein binding in Sprague-Dawley rat at 6 umol/kg, iv; format: ADME, cell-free
Rattus norvegicus [2] = assay: Volume of distribution at steady state in Sprague-Dawley rat at 6 umol/kg, iv; format: ADME, organism-based; details: in vivo
BT-549 = assay: Antiproliferative activity against human BT549 after 48 hrs by spectrophotometry; format: functional, cell-based; details: BT-549, 48 h
Calu-6 = assay: Antiproliferative activity against human Calu6 after 48 hrs by spectrophotometry; format: functional, cell-based; details: Calu-6, 48 h
HUVEC [3] = assay: Antiproliferative activity against HUVEC grown in absence of growth factors after 48 hrs by spectrophotometry; format: functional, cell-based; details: Homo sapiens
Rattus norvegicus [4] = assay: Half life in Sprague-Dawley rat at 6 umol/kg, iv; format: ADME, organism-based; details: in vivo
A-431 = assay: Antiproliferative activity against human A431 after 48 hrs by spectrophotometry; format: functional, cell-based; details: A-431, 48 h
786-0 [5] = assay: Antiproliferative activity against MDR-1 overexpressing human 786-0 cells in presence of MDR1 inhibitor verapamil; format: functional, cell-based
786-0 [6] = assay: Antiproliferative activity against MDR-1 overexpressing human 786-0 cells; format: functional, cell-based
MCF7 = assay: Antiproliferative activity against human MCF7 cells assessed after 48 hrs by spectrophotometry; format: functional, cell-based; details: MCF7, 48 h
[7] = Cytotoxicity against human A2780cis cells; format: functional, cell-based; details: A2780cisR
SK-OV-3 = assay: Antiproliferative activity against human SKOV3 after 48 hrs by spectrophotometry; format: functional, cell-based; details: SK-OV-3, 48 h
[8] = Cytotoxicity against human A2780/ADR cells; format: functional, cell-based
A-375 = assay: Antiproliferative activity against human A375 after 48 hrs by spectrophotometry; format: functional, cell-based; details: A-375, 48 h
[9] = Aqueous solubility of the compound; format: physicochemical; details: buffer
[10] = Drug uptake in tumor of MDA-MB-231 breast cancer BALB/c mouse model at 1 to 150 mg/kg, iv measured after 24 hrs; format: ADME, organism-based; design: dose 1-150 mg/kg, route intravenous; details: in vivo
[11] = Antiproliferative activity against human HAAE1 grown in presence of growth factors after 48 hrs by spectrophotometry; format: functional
[12] = Antiproliferative activity against human HAAE1 grown in absence of growth factors after 48 hrs by spectrophotometry; format: functional
[13] = Antiproliferative activity against human U87MG after 48 hrs by spectrophotometry; format: functional, U-87MG ATCC; details: U-87 MG
A2780 = assay: Cytotoxicity against human A2780 cells; format: functional, cell-based
MDA-MB-231 [14] = assay: Antiproliferative activity against human MDA-MB-231 after 48 hrs by spectrophotometry; format: functional, cell-based; details: MDA-MB-231, 48 h
[15] = Inhibition of tubulin polymerization by spectrophotometry
LoVo = assay: Antiproliferative activity against human LoVo after 48 hrs by spectrophotometry; format: functional, cell-based
HUVEC [16] = assay: Selectivity ratio of IC50 for HUVEC grown in absence of growth factors to IC50 for HUVEC grown in presence of growth factors; format: functional, Homo sapiens
MDA-MB-231 [17] = assay: Antitumor activity against human MDA-MB-231 xenografted in mouse assessed as tumor growth inhibition at 40 mg/kg administered on day 1 and 8 measured after 70 days; format: functional, organism-based; design: dose 40 mg/kg
MDA-MB-231 [18] = assay: Antitumor activity against human MDA-MB-231 xenografted in mouse assessed as tumor growth inhibition at 10 mg/kg administered on day 1 and 5; format: functional, organism-based; design: dose 10 mg/kg

COc1ccc(/C=C\c2cc(OC)c(OC)c(OC)c2)cc1O [COMBRETASTATIN A4]
IC50 (HUVEC [1]): 3.6 nM
IC50 (AU565): 4.4 nM
IC50 (DU-145): 4 nM
PPB (Plasma): 98.9%
Vdss (Rattus norvegicus [2]): 7.3 L/kg
IC50 (BT-549): 3.5 nM
IC50 (Calu-6): 0.94 nM
IC50 (HUVEC [3]): 3.9 nM
t1/2 (Rattus norvegicus [4]): 0.7 h
IC50 (A-431): 188 nM

CC[C@]1(O)C[C@H]2CN(CCc3c([nH]c4ccccc34)[C@@](C(=O)OC)(c3cc4c(cc3OC)N(C=O)[C@H]3[C@@](O)(C(=O)OC)[C@H](OC(C)=O)[C@]5(CC)C=CCN6CC[C@]43[C@@H]65)C2)C1 [VINCRISTINE]
IC50 (786-0 [5]): 1.2 nM
IC50 (786-0 [6]): 37 nM

COc1cc(C(=O)c2coc3c(O)c(OC)ccc23)cc(OC)c1OC
IC50 (HUVEC [1]; read-out: IC50): 83 nM
IC50 (MCF7): 45 nM
IC50 (HUVEC [3]): 322 nM

COc1cc(C(=O)c2c(C)oc3c(O)c(OC)ccc23)cc(OC)c1OC
IC50 [7]: 0.01 nM
IC50 (SK-OV-3): 0.59 nM
IC50 [8]: 0.06 nM
IC50 (A-375): 1.5 nM
IC50 (HUVEC [1]; read-out: IC50): 0.31 nM
IC50 (AU565): 5.8 nM
solubility [9]: Insoluble
Drug uptake [10]: 64%
IC50 [11]: 0.1 nM
IC50 (DU-145): 0.36 nM
Vdss (Rattus norvegicus [2]): 7.1 L/kg
IC50 (MCF7): 2.4 nM
IC50 (BT-549): 0.34 nM
IC50 (Calu-6): 0.16 nM
IC50 (HUVEC [3]): 25 nM
t1/2 (Rattus norvegicus [4]): 3.5 h
IC50 [12]: 12 nM
IC50 [13]: 0.41 nM
IC50 (A2780): 0.03 nM
IC50 (MDA-MB-231 [14]): 0.63 nM
IC50 [15]: 3000 nM
IC50 (LoVo): 0.24 nM

COc1cc(C(=O)c2c(/C=C/C(N)=O)oc3c(O)c(OC)ccc23)cc(OC)c1OC
Ratio IC50 (HUVEC [16]): 0.9
IC50 (HUVEC [1]; read-out: IC50): 2.6 nM
IC50 (HUVEC [3]): 2.3 nM

COc1cc(C(=O)c2c(C)oc3c(OP(=O)([O-])[O-])c(OC)ccc23)cc(OC)c1OC.[Na+].[Na+]
solubility [9]: soluble
growth inhibition (GI) (MDA-MB-231 [17]): Active
growth inhibition (GI) (MDA-MB-231 [18]): Active

COc1ccc2c(C(=O)c3cc(OC)c(OC)c(OC)c3)c(Br)oc2c1
Ratio IC50 (HUVEC [16]): 0.6
IC50 (HUVEC [1]; read-out: IC50): 510 nM
IC50 (HUVEC [3]): 309 nM

COc1cc(C(=O)c2c(-c3ccco3)oc3c(O)c(OC)ccc23)cc(OC)c1OC
Ratio IC50 (HUVEC [16]): 0.9
IC50 (HUVEC [1]; read-out: IC50): 3.6 nM
IC50 (MCF7): 0.6 nM
IC50 (HUVEC [3]): 3.4 nM
IC50 [15]: 8700 nM

COc1cc(C(=O)c2c(-n3cccc3)oc3c(O)c(OC)ccc23)cc(OC)c1OC
IC50 (HUVEC [3]): 3.3 nM

COc1ccc(-c2sccc2C(=O)c2cc(OC)c(OC)c(OC)c2)cc1O
IC50 [15]: 1000 nM

COC(=O)/C=C/c1oc2c(O)c(OC)ccc2c1C(=O)c1cc(OC)c(OC)c(OC)c1
Ratio IC50 (HUVEC [16]): 6
IC50 (HUVEC [1]; read-out: IC50): 0.38 nM
IC50 (HUVEC [3]): 2.3 nM

CC(=O)O[C@H]1C(=O)[C@@]2(C)[C@H]([C@H](OC(=O)c3ccccc3)[C@]3(O)C[C@H](OC(=O)[C@H](O)[C@@H](NC(=O)c4ccccc4)c4ccccc4)C(C)=C1C3(C)C)[C@]1(OC(C)=O)CO[C@@H]1C[C@@H]2O [PACLITAXEL]
IC50 (786-0 [5]): 4 nM
IC50 (786-0 [6]): 31 nM

COc1cc(C(=O)c2c(-c3cccs3)oc3c(O)c(OC)ccc23)cc(OC)c1OC
Ratio IC50 (HUVEC [16]): 1.2
IC50 (HUVEC [1]; read-out: IC50): 0.31 nM
IC50 (MCF7): 0.5 nM
IC50 (HUVEC [3]): 0.36 nM

COc1ccc2c(C(=O)c3cc(OC)c(OC)c(OC)c3)c(N3CCN(C)CC3)oc2c1
Ratio IC50 (HUVEC [16]): 0.8
IC50 (HUVEC [1]; read-out: IC50): 484 nM
IC50 (MCF7): 215 nM
IC50 (HUVEC [3]): 405 nM
